From ChEMBL document CHEMBL4219074, “Borrelidins F-I, cytotoxic and cell migration inhibiting agents from mangrove-derived Streptomyces rochei SCSIO ZJ89” (Bioorg Med Chem, 2018)
Activity calls are given as the source filed them. The rule behind the calls is not given here.

Legend:
A549 [1] = assay: Cytotoxicity against human A549 cells by CCK8 assay; format: functional, cell-based
CNE-2 = assay: Cytotoxicity against human CNE2 cells by CCK8 assay; format: functional, cell-based
HeLa [2] = assay: Cytotoxicity against human HeLa cells by CCK8 assay; format: functional, cell-based
HepG2 = assay: Cytotoxicity against human HepG2 cells by CCK8 assay; format: functional, cell-based
MCF7 = assay: Cytotoxicity against human MCF7 cells by CCK8 assay; format: functional, cell-based
L02 = assay: Cytotoxicity against human L02 cells by CCK8 assay; format: cell-based
[3] = Cytotoxicity against HUVEC12 cells by CCK8 assay; format: cell-based; conditions: Homo sapiens
HeLa [4] = assay: Inhibition of serum-induced cell migration in human HeLa cells at 0.5 to 2 times IC50 measured up to 17 hrs by wound healing assay; format: functional, cell-based
A549 [5] = assay: Inhibition of serum-induced cell migration in human A549 cells at 0.5 to 2 times IC50 measured up to 46 hrs by wound healing assay; format: functional, cell-based
[6] = Inhibition of serum-induced cell migration in HUVEC12 cells at 0.5 to 2 times IC50 measured up to 17 hrs by wound healing assay; format: cell-based; conditions: human

Row | Compound | IC50 (A549 [1]) | IC50 (CNE-2) | IC50 (HeLa [2]) | IC50 (HepG2) | IC50 (MCF7) | IC50 (L02) | IC50 [3] | inhibition (HeLa [4]) | inhibition (A549 [5]) | Activity [6]
1 | C[C@@H]1C[C@H](C)C[C@H](C)[C@@H](O)CC(=O)O[C@@H]([C@@H]2CCC[C@H]2C(=O)O)C/C=C/C=C(/C#N)[C@@H](O)[C@@H](C)C1 | 9.2 µM | 9.35 µM | 11.6 µM | 14.6 µM | 1.21 µM | 8.73 µM | 12 µM |  |  | 
2 | C[C@@H]1C[C@H](C)C[C@H](C)[C@@H](O)CC(=O)O[C@@H]([C@@H]2CCC[C@H]2C(=O)O)C/C=C/C=C(/C#N)[C@H](O)[C@@H](C)C1 | 1.69 µM | 1.55 µM | 2.19 µM | 2.19 µM | 0.12 µM | 0.98 µM | 1.44 µM |  |  | 
3 | COc1cccc2c1C(=O)c1c(O)c3c(c(O)c1C2=O)C[C@@](O)(C(=O)CO)C[C@@H]3O[C@H]1C[C@H](N)[C@H](O)[C@H](C)O1 [DOXORUBICIN] | 3.41 µM | 3.52 µM |  | 1.13 µM |  | 13.2 µM | 34.2 µM |  |  | 
4 | C[C@@H]1C[C@H](C)C[C@H](C)[C@@H](O)CC(=O)O[C@@H]([C@@H]2CCC[C@H]2C(=O)O)C/C=C\C=C(/C#N)[C@@H](O)[C@@H](C)C1 | 1.22 µM | 1.27 µM | 1.28 µM | 2.05 µM | 0.12 µM | 7.26 µM | 6.13 µM | Active | Active | Non-Toxic
5 | C[C@@H]1C[C@H](C)C[C@H](C)[C@@H](O)CC(=O)O[C@@H]([C@@H]2CCC[C@H]2C(=O)O)C/C=C\C=C(/C#N)[C@H](O)[C@@H](C)C1 | 15.2 µM | 14.4 µM | 15.1 µM | 17.5 µM | 1.15 µM | 22.8 µM | 14.3 µM |  |  | 
6 | CC(=O)NC/C1=C/C=C/C[C@H]([C@@H]2CCC[C@H]2C(=O)O)OC(=O)C[C@H](O)[C@@H](C)C[C@@H](C)C[C@@H](C)C[C@H](C)[C@@H]1O | > 50 µM | > 50 µM | > 50 µM | > 50 µM | > 50 µM | > 50 µM | > 50 µM | inactive | inactive | 
